Laboratory results reported in patent US20220371988A1, “TRPV1 AGONIST AND PREPARATION METHOD THEREFOR AND USE THEREOF” (NANJING DELOVA BIOTECH CO. LTD., priority 2019, published 2022).
Values after ≈ are worked out from the molar mass of the structure shown. Like-named read-outs stand apart in the source and are kept apart here.

What was measured:
[1] = tested on: rats as models of pain after incision; assay: Thermal hyperalgesia test (Hargreaves method) in rats as models of pain after incision; format: in vivo, SD rat
[2] = tested on: rats as models of pain after incision; assay: Mechanical allodynia test (Von Frey method) in rats as models of pain after incision; format: in vivo, SD rat
[3] = parent drug, cited from earlier work
[4] = HD group: A-17 0.6 mg/animal, parent 0.36 mg/animal
[5] = LD group: A-17 0.15 mg/animal, parent 0.09 mg/animal

| Compound | Effect on overall thermal hyperalgesia (AUC of time-TWL curve) within 7 days vs blank preparation ([1]; HD group: A-17 0.6 mg/animal (P<0.001), parent 0.36 mg/animal (P<0.01)) | Duration of analgesic effect on thermal hyperalgesia [1, 4] [days] | Effect on overall thermal hyperalgesia (AUC of time-TWL curve) within 7 days vs blank preparation [1, 5] | Time after surgery at which thermal withdrawal latency (TWL) was increased vs blank preparation group (P<0.05) ([1]; LD group: A-17 0.15 mg/animal, parent 0.09 mg/animal, injection at incision site) [h] | Time after surgery at which paw withdrawal threshold (PWT) was increased vs blank preparation group (P<0.05) [2, 4] [h] | Time after surgery at which paw withdrawal threshold (PWT) was increased vs blank preparation group (P<0.05) [2, 5] | Solubility in water ([3]; at 25° C.) [µg/mL] | Log P [3] | Release half-life t1/2 (pH 4.5) | Release half-life t1/2 (pH 7.4) |
| --- | --- | --- | --- | --- | --- | --- | --- | --- | --- | --- |
| COc1cc(CNC(=O)CCCC/C=C/C(C)C)ccc1O [trans-8-methyl-N-vanillyl-6-nonenamide] | effective in relieving the overall thermal hyperalgesia | 3 | no significant effect | 1 | 4 | no significant effect | 8.41 (≈ 27.5 µM) | 3.8 | – | – |
| (E)-2-methoxy-4-(8-methylnonanamide)phenyl 2-([[1,4′-bipiperidin]-1′-yl) propanoate hydrochloride [Compound A-16] | – | – | – | – | – | – | – | – | About 73 h | About 157 h |
